Laboratory results reported in patent US9181266B2, “2-piperidin-1-yl-acetamide compounds for use as tankyrase inhibitors” (NOVARTIS AG, priority 2011, dated 2015).

Key:
[1] = tested on: Axin2 protein in SW480 cells; assay: Cellular ELISA assay of Axin2 protein stabilization; assay type: cell-based; details: Homo sapiens, 24 hrs, read-out: Axin AC50
In short: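 SW480 colorectal cells seeded overnight, treated with compound, then lysed. Axin2 in lysates measured by sandwich ELISA: anti-Axin2 capture antibody coated at 1 μg/ml (pH 9.2), lysate 2 h at room temperature, biotinylated anti-Axin2 detection 2 h, then streptavidin-HRP 30 min.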

PARP2 = PARP2 (Mus musculus (Mouse), UniProt O88554); assay: PARP2 autoparsylation assay (LC/MS detection of nicotinamide); assay type: biochemical; details: 20 nM enzyme, 250 μM β-NAD+, 60 min
Procedure: (§1) The autoparsylation activity of the TNKS 1/2 or PARP1/2 enzymes was measured by the liquid chromatography-mass spectrometry (LC/MS) detection of nicotinamide as readout. Compound activity in inhibiting the TNKS and PARP autoparsylation was evaluated by IC50 measurements.

[2] = tested on: Non-small lung cancer ABC-1 cells; assay: Cellular proliferation assay (CellTiter-Glo); assay type: cell-based; details: Homo sapiens, 72 h; ABC-1 cells, 3 days of compound treatment; read-out: ABC-1 IC50
Procedure: Cellular Proliferation Assay to Determine Compound Inhibition of Cancer Cell Growth
Viable cells were measured after 3 days of compound treatment using the CellTiter-Glo assay (Promega, G7570). Assay was performed following the manufacture protocol.

Human PARP1 = Human PARP1 (Homo sapiens (Human), UniProt P09874); assay: PARP1 autoparsylation assay (LC/MS detection of nicotinamide); assay type: biochemical; details: 20 nM enzyme, 250 μM β-NAD+, 60 min
Procedure: as §1

[3] = target: human tankyrase 1 PARP catalytic domain, TNKS1P (Homo sapiens (Human), UniProt O95271); assay: TNKS1 autoparsylation assay (LC/MS detection of nicotinamide); details: read-out: TNKS1 AP IC50, 20 nM enzyme, 250 μM β-NAD+, 60 min
[4] = tested on: Wnt ligand-induced signaling in HEK293 cells; assay: Wnt-responsive Super-TOpFlash (STF) luciferase reporter gene assay; assay type: cell-based; details: Homo sapiens, Wnt3A condition medium
In short: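 HEK293 cells (8000/well, 5% FBS medium) treated with 20% mouse L-cell Wnt3A conditioned medium plus compounds in 10-point serial dilution; luciferase read next day. Inhibition calculated relative to Wnt3A-induced signal without compound and background without Wnt3A CM or compound.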

[5] = target: tankyrase 2 protein PARP domain, TNKS2P (Homo sapiens (Human), UniProt Q9H2K2); assay: TNKS2 autoparsylation assay (LC/MS detection of nicotinamide); details: read-out: TNKS2 AP IC50, 20 nM enzyme, 250 μM β-NAD+, 60 min
[6] = tested on: Herpes Simplex Virus (HSV); details: cited from earlier work

Sequence of Human PARP1 (P09874 whole entry): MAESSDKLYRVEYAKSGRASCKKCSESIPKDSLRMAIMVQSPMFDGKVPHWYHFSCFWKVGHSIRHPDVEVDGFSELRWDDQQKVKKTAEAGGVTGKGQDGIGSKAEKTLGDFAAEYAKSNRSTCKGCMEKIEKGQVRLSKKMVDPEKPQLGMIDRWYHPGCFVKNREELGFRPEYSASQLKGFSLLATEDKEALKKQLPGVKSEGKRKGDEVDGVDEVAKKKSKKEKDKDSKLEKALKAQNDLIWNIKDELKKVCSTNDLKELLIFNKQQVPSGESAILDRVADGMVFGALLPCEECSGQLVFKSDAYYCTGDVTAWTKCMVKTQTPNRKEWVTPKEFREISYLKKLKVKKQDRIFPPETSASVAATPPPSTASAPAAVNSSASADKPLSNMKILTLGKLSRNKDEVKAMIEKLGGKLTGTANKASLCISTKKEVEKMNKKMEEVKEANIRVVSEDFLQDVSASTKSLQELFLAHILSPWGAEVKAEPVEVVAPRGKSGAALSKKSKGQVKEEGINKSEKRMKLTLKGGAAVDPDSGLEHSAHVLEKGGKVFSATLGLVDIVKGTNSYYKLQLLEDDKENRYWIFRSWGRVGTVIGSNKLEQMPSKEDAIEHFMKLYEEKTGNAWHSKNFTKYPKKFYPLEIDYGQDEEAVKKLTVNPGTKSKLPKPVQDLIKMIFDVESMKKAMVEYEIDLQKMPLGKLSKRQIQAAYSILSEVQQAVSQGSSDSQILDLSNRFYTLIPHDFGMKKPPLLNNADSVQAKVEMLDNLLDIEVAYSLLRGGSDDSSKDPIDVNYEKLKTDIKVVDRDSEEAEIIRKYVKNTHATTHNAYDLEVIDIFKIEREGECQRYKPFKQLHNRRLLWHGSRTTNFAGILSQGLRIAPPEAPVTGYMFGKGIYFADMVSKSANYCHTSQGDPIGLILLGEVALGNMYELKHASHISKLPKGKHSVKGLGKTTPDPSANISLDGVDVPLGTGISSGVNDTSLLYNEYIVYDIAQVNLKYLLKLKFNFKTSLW
Sequence of PARP2 (O88554 whole entry): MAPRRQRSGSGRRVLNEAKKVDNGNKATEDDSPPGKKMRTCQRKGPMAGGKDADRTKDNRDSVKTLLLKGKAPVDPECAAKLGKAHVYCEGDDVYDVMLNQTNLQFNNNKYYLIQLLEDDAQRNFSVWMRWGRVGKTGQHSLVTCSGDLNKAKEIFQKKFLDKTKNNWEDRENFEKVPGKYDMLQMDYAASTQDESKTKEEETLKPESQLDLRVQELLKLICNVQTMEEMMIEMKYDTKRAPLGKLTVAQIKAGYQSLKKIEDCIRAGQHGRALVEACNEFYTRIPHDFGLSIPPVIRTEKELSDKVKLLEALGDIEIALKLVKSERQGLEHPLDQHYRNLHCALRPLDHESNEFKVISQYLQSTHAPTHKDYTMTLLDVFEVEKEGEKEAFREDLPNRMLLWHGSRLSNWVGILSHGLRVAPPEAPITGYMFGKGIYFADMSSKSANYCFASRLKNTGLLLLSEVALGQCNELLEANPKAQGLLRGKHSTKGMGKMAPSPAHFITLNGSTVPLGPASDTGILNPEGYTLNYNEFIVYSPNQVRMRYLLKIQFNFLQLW
Sequence of human tankyrase 1 PARP catalytic domain, TNKS1P (O95271 1112-1317): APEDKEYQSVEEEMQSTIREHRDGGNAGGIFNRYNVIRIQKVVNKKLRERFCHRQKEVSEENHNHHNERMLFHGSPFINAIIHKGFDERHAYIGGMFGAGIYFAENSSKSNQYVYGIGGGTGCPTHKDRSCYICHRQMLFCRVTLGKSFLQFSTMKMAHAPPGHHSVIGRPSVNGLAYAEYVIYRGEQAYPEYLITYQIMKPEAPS
Sequence of tankyrase 2 protein PARP domain, TNKS2P (Q9H2K2 959-1164): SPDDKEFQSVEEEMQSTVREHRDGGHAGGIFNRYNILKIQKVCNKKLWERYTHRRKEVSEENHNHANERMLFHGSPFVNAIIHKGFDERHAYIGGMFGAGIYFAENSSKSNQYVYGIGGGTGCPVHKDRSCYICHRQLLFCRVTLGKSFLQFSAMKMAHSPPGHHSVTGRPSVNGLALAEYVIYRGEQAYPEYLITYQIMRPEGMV

Row | Compound | AC50 [1] [µM] | IC50 (PARP2) [µM] | IC50 [2] [µM] | IC50 (Human PARP1) [µM] | IC50 [3] [µM] | IC50 [4] [µM] | IC50 [5] [µM] | HSV viral growth [6] | HSV viral protein expression [6]
1 | O=C(CN1CCC(C(=O)c2ccc3c(c2)CCO3)CC1)NCc1nc2c(c(=O)[nH]1)COCC2 [Example 91, 2-[4-(2,3-Dihydro-benzofuran-5-carbonyl)-piperidin-1-yl]-N-(4-oxo-3,5,7,8-tetrahydro-4H-pyrano[4,3-c]pyrimidin-2-ylmethyl)-acetamide] | 0.053 ± 0.025 | 4.53 ± 0.07 | 0.116 | 16.7 ± 0.4 | 0.04 ± 0.01 | 0.01 ± 0.007 | 0.02 | – | –
2 | COc1ccc(C(=O)C2CCN(CC(=O)NCc3nc4c(c(=O)[nH]3)COCC4)CC2)cc1C [Example 93, 2-[4-(4-Methoxy-3-methyl-benzoyl)-piperidin-1-yl]-N-(4-oxo-3,5,7,8-tetrahydro-4H-pyrano[4,3-d]pyrimidin-2-ylmethyl)-acetamide] | 1.16 ± 0.15 | 4.26 ± 0.21 | 2.01 | 17.1 ± 0.8 | 0.033 ± 0.014 | 0.052 ± 0.012 | 0.012 | – | –
3 | Oc1nc(-c2ccc(C(F)(F)F)cc2)nc2c1CSCC2 [XAV939] | – | – | – | – | – | – | – | decreased viral growth | suppressed HSV viral protein expression
